Entries after “also recorded” stand apart in the source; their conditions may differ. Ends that are not written are not given here.
What was measured:
[1] = test system: PMN interaction to an activated HUVEC monolayer; experiment: Flow chamber assay: PMN interaction with activated HUVEC monolayer (capture, rolling, adhesion); type: cell-based, human; settings: for inhibition of PMN interaction with HUVECs (capture, adhesion, rolling): 10 μM peptide, 10 min at 37° C., flow 8 min at 1 dyne/cm^2; for inhibition of PMN/neutrophil-endothelium interactions in flow chamber: concentration not given; for lowest concentration with activity on PMN-HUVEC interactions: flow chamber model
Text: FIGS. 2A-2C are a series of charts reporting data from flow chamber analysis to determine the inhibitory capability of five polypeptides of the present disclosure (Pep57 (SEQ ID NO:12); Pep59 (SEQ ID NO:13), Pep60 (SEQ ID NO:15), Pep83 (SEQ ID NO:16) and Pep84 (SEQ ID NO:14)) and Ac-ANAX1(2-26)-OH to reduce PMN interaction to an activated HUVEC monolayer.
FIGS. 4A-4C are a series of bar charts reporting percent inhibition provided by three polypeptides (UGP022 (SEQ ID NO:5); UGP025 (SEQ ID NO:7) and UGP026 (SEQ ID NO:8)) of the present disclosure, at different concentrations, on three different parameters (capture—FIG. 4A; rolling—FIG. 4B; and adhesion—FIG. 4C).
FIGS. 2A-2C are a series of charts reporting data from flow chamber analysis to determine the inhibitory capability of five polypeptides (Pep57 (SEQ ID NO: 12); Pep59 (SEQ ID NO: 13), Pep60 (SEQ ID NO: 15), Pep83 (SEQ ID NO: 16) and Pep84 (SEQ ID NO: 14)) of the present disclosure and Ac-ANAX1(2-26)-OH to reduce PMN interaction to an activated HUVEC monolayer. PMNs (5×10^6) were incubated with 10 μM of the various peptides for 10 min at 37° C. The PMNs were then flowed for 8 min at 1 dyne/cm^2, prior to quantifying the degree of PMN interaction with the HUVECs, both as PMN capture (FIG. 2A), adhesion (FIG. 2B) and rolling (FIG. 2C). […] Data are mean±SEM of 3 independent experiments (with distinct PMN and HUVEC preparations); *=P<0.05 vs. CT group, data analyzed using one way ANOVA.
FIGS. 4A-4C make a direct comparison of the activities of UGP022 (SEQ ID NO:5), UGP025 (SEQ ID NO: 7) and UGP026 (SEQ ID NO: 8) in the flow chamber assay, presenting the degree of inhibition on the three parameters under analysis (capture (FIG. 4A); rolling (FIG. 4B) and adhesion (FIG. 4C)).

[2] = target: T1, FPR2 (Homo sapiens, UniProt P25090); experiment: p-ERK activation in HEK-FPR2 cells (western blot, densitometry p-ERK vs t-ERK); type: cell-based; design: expressed in transfected cells; host or cells: HEK cells (HEK-FPR2); settings: for p-ERK activation through the FPR2 receptor: 10 μM peptide, 8 minutes, HEK-FPR2 cells
T1 sequence (P25090 1-351): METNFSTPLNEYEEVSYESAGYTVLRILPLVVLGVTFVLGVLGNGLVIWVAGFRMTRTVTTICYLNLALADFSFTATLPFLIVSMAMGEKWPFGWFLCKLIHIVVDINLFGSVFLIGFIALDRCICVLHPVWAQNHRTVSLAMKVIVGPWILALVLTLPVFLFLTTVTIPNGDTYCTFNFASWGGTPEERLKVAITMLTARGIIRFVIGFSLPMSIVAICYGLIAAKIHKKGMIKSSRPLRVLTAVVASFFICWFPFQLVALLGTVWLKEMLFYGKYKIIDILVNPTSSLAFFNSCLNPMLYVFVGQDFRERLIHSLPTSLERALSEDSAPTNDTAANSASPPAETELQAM
Text: FIG. 1A and FIG. 1B show western blotting analysis comparing p-ERK activation potency through the FPR2 receptor for five polypeptides of the present disclosure (Pep57 (SEQ ID NO:12); Pep59 (SEQ ID NO:13), Pep60 (SEQ ID NO:15), Pep83 (SEQ ID NO:16) and Pep84 (SEQ ID NO:14)) relative to Ac-ANAX1(2-26)-OH. FIG. 1A is a representative blot for p-ERK and t-ERK.
The experiments whose results are reported in FIG. 1A and FIG. 1B were directed to determining which of the five polypeptides tested (Pep57 (SEQ ID NO: 12); Pep59 (SEQ ID NO: 13), Pep60 (SEQ ID NO: 15), Pep83 (SEQ ID NO: 16) and Pep84 (SEQ ID NO: 14)) best activated the p-ERK through the FPR2 receptor, similar to Ac-ANAX1(2-26)-OH, the parent peptide. The HEK-FPR2 cells were co-incubated with 10 μM of the novel Ac2-26 peptides for 8 minutes following which the cell were lysed and resuspended in cell lysis solution. Then 100 ng of total protein were loaded on to 10% polyacrylamide gel. Following electrophoresis, transfer and blocking the membrane was first probed with an anti p-ERK antibody and then stripped and reprobed with and anti total ERK antibody. […] Data presented as mean and SEM of 3 distinct experiments with one way ANOVA employed for statistical analysis. (*=P<0.05 vs. CT).

[3] = target: T1, FPR2; experiment: FPR2 activation (ERK phosphorylation and intracellular calcium fluxes); type: cell-based
[4] = target: T1, FPR2; experiment: Binding affinity to FPR2
[5] = test system: leukocyte recruitment into the inflamed airpouch; experiment: Mouse IL-1β air-pouch inflammation model (leukocyte migration); type: in vivo; settings: for inhibition of leukocyte infiltration/recruitment in air-pouch model: mouse air-pouch
Protocol: FIG. 3A and FIG. 3B are a series of bar charts comparing the anti-inflammatory effects of three polypeptides (Pep57 (SEQ ID NO:12); Pep59 (SEQ ID NO:13) and Pep84 (SEQ ID NO:14)) of the present disclosure versus a vehicle-only control.
FIG. 3A and FIG. 3B are a series of bar charts comparing the anti-inflammatory effects of three polypeptides (Pep57 (SEQ ID NO: 12); Pep59 (SEQ ID NO: 13) and Pep84 (SEQ ID NO: 14)) of the present disclosure versus a vehicle-only control. Mice received 200 μl i.v. of saline+DMSO or a dose of 50 μg per animal of one of the three Ac2-26 derived peptides, immediately before the local injection of mouse IL-1β into 6-day-old airpouches. The extent of cell migration was determined 4 h later, following airpouch washing and staining of migrated cells with Gr1 marker. […] Data are mean±SEM of 5 mice per group. *P<0.05 vs. vehicle group (one way ANOVA).

[6] = target: T2, FPR1 (Homo sapiens, UniProt P21462); experiment: FPR1 activation (ERK phosphorylation and intracellular calcium fluxes); type: cell-based
T2 sequence (P21462 1-350): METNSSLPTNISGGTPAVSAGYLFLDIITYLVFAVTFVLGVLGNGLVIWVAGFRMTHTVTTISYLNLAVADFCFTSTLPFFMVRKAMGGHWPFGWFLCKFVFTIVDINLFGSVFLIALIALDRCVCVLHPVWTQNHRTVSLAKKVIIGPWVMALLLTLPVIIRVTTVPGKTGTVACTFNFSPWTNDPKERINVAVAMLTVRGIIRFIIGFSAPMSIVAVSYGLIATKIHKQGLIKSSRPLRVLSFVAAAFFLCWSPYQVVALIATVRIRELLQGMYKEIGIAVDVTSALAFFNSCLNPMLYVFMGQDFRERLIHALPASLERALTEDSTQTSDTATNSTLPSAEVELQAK

[7] = 50 μg per animal i.v., IL-1β, 4 h

In the case of “Glu11,22-Ac-ANAX1(2-26)-OH (Ac-AMVSEFLKQEWFIENEEQEYEQTVK-OH) [Pep60, 25 amino acids; Annexin 1 (2-26), residues 10 and 21 glutamic acid, residue 1 acetylated]”, the “inhibition of PMN interaction with HUVECs (capture, adhesion, rolling)” value (shortened to “inhibition of PMN interaction”) [1] is reported as “displayed potent inhibitory properties similar to those displayed by the parent Ac2-26 peptide” and the “p-ERK activation through the FPR2 receptor” value [2] is reported as “not that effective to phosphorylate ERK”.
With “ANXA1(2-50) Gly51-OH (AMVSEFLKQAWFIENEEQEYVQTVKSSKGGPGSAVSPYPTFNPSSDVAAG-OH; ends and bridges not checked) [UGP021, 50 amino acids; amino acids 2-50 of human Annexin 1, position 50 of the polypeptide is glycine]” the “activation of FPR2” value [3] was “could activate both FPR1 and FPR2”, the “binding affinity to FPR2” value [4] was “binding affinity to the FPR2 in the nanomolar range” and the “inhibition of PMN/neutrophil-endothelium interactions in flow chamber” value [1] was “more potent than Ac-ANXA1(2-26)-OH and full length ANXA1”. For the same substance, the “inhibition of leukocyte infiltration/recruitment in air-pouch model” value [5] was “more potent than Ac-ANXA1(2-26)-OH and full length ANXA1; also recorded: possess anti-inflammatory activities in an in vivo assay of leukocyte recruitment” and the “activation of FPR1” value [6] was “could activate both FPR1 and FPR2”.
With “Met11,22-Ac-ANAX1(2-26)-OH (Ac-AMVSEFLKQMWFIENEEQEYMQTVK-OH) [Pep84]” the “inhibition of PMN interaction” value [1] was “displayed inhibitory properties similar to those observed in the parent Ac2-26 peptide”, the “inhibition of PMN/neutrophil-endothelium interactions in flow chamber” value [1] was “significantly inhibited PMN-HUVEC interactions” and the “lowest concentration with activity on PMN-HUVEC interactions” value [1] was 10 pM. The “downstream signaling via the FPR family of receptors” value [2] was “lead to downstream signaling via the FPR family of receptors”, the “p-ERK activation through the FPR2 receptor” value [2] was “p-ERK activated was observed to be highest” and the “migrated cell count in air-pouch (FIG. 3A)” value [5, 7] was “display anti-inflammatory properties”. For the same substance, the “inhibition of leukocyte infiltration/recruitment in air-pouch model” value [5] was “inhibiting this inflammatory readout to a larger extent”.
For “Ac-ANAX1(2-26)-OH (Ac-AMVSEFLKQAWFIENEEQEYVQTVK-OH) [Ac2-26, parent peptide; mimics the 2nd to the 26th amino acids of the Annexin A1 N-terminal region, N-terminally acetylated, reference compound]”, the “inhibition of PMN interaction” value [1] was “inhibitory properties” and the “p-ERK activation through the FPR2 receptor” value [2] was “activation caused by the parent Ac2-26”.
“ANXA1(2-50)-OH (AMVSEFLKQAWFIENEEQEYVQTVKSSKGGPGSAVSPYPTFNPSSDVAA-OH; ends and bridges not checked) [UGP024, 49 amino acids; amino acids 2-50 of human Annexin 1]” was tested, and the “activation of FPR2” value [3] was “could activate both FPR1 and FPR2”, the “inhibition of PMN/neutrophil-endothelium interactions in flow chamber” value [1] was “more potent than Ac-ANXA1(2-26)-OH and full length ANXA1” and the “inhibition of leukocyte infiltration/recruitment in air-pouch model” value [5] was “more potent than Ac-ANXA1(2-26)-OH and full length ANXA1; also recorded: possess anti-inflammatory activities in an in vivo assay of leukocyte recruitment”. The “activation of FPR1” value [6] was “could activate both FPR1 and FPR2”.
“Asp11,22-Ac-ANAX1(2-26)-OH (Ac-AMVSEFLKQDWFIENEEQEYDQTVK-OH) [Pep59, 25 amino acids; Annexin 1 (2-26), residues 10 and 21 aspartic acid, residue 1 acetylated]” was tested, and the “inhibition of PMN interaction” value [1] was “did not display any inhibitory properties in this assay”, the “downstream signaling via the FPR family of receptors” value [2] was “lead to downstream signaling via the FPR family of receptors” and the “p-ERK activation through the FPR2 receptor” value [2] was “p-ERK activated was observed to be highest; also recorded: very high p-ERK activation potential”.
“Leu11,22-Ac-ANAX1(2-26)-OH (Ac-AMVSEFLKQLWFIENEEQEYLQTVK-OH) [Pep57, 25 amino acids; Annexin 1 (2-26), residues 10 and 21 leucine, residue 1 acetylated]” was tested, and the “inhibition of PMN interaction” value [1] was “displayed inhibitory properties similar to those observed in the parent Ac2-26 peptide”, the “inhibition of PMN/neutrophil-endothelium interactions in flow chamber” value [1] was “significantly inhibited PMN-HUVEC interactions” and the “lowest concentration with activity on PMN-HUVEC interactions” value [1] was 10 pM. For the same substance, the “downstream signaling via the FPR family of receptors” value [2] was “lead to downstream signaling via the FPR family of receptors”, the “p-ERK activation through the FPR2 receptor” value [2] was “p-ERK activated was observed to be highest” and the “GR1+ve cells in air-pouch (FIG. 3B)” value [5, 7] was “losing this observed effect”. The “migrated cell count in air-pouch (FIG. 3A)” value [5, 7] was “display anti-inflammatory properties” and the “inhibition of leukocyte infiltration/recruitment in air-pouch model” value [5] was “significantly inhibiting leukocyte infiltration; also recorded: displayed inhibitory potential in the model”.
For “Ile11,22-Ac-ANAX1(2-26)-OH (Ac-AMVSEFLKQIWFIENEEQEYIQTVK-OH) [Pep83, 25 amino acids; Annexin 1 (2-26), residues 10 and 21 isoleucine, residue 1 acetylated]”, the “inhibition of PMN interaction” value [1] was “only Pep57 (SEQ ID NO: 12), Pep60 (SEQ ID NO: 15) and Pep84 (SEQ ID NO: 14) display inhibitory properties”.

Source: US10072055B2, “Anti-inflammatory pharmaceutical products” (Resother Pharma APS, priority 2011, dated 2018)
